Experiment: xn = mol fraction of the nth substance listed

C[Si]1(C)O[Si](C)(C)O[Si](C)(C)O[Si](C)(C)O1 + CCCCCCCCCCCCC
viscosity [mPa·s], 103 kPa
Conditions	298.15 K	308.15 K	318.15 K
x1 = 0.05	1.619	1.351	1.145
x1 = 0.1	1.61	1.343	1.139
x1 = 0.15	1.604	1.339	1.137
x1 = 0.2	1.602	1.338	1.134
x1 = 0.2501	1.604	1.346	1.136
x1 = 0.3	1.608	1.342	1.139
x1 = 0.35	1.614	1.345	1.143
x1 = 0.4	1.62	1.355	1.149
x1 = 0.45	1.636	1.366	1.159
x1 = 0.5	1.649	1.375	1.167
x1 = 0.55	1.667	1.389	1.177
x1 = 0.6	1.69	1.406	1.191
x1 = 0.65	1.715	1.43	1.209
x1 = 0.7	1.751	1.458	1.24
x1 = 0.75	1.794	1.498	1.269
x1 = 0.8	1.826	1.53	1.293
x1 = 0.85	1.89	1.572	1.328
x1 = 0.9	1.941	1.62	1.365
x1 = 0.95	1.996	1.659	1.405

CCOC=O + CCC(C)O
viscosity [mPa·s], 100 kPa
Conditions	x1 = 0.0818	x1 = 0.1617	x1 = 0.2415	x1 = 0.3497	x1 = 0.4398	x1 = 0.5611	x1 = 0.65	x1 = 0.7399	x1 = 0.85	x1 = 0.9396
293.15 K	2.41	1.74	1.35	1.04	0.86	0.69	0.59	0.53	0.48	0.44
298.15 K	2.03	1.51	1.2	0.94	0.78	0.62	0.55	0.5	0.45	0.42
303.15 K	1.74	1.32	1.07	0.84	0.71	0.58	0.51	0.47	0.43	0.4
308.15 K	1.5	1.17	0.96	0.77	0.66	0.55	0.49	0.45	0.41	0.38
313.15 K	1.3	1.02	0.85	0.71	0.61	0.51	0.46	0.42	0.39	0.36
318.15 K	1.13	0.9	0.77	0.65	0.57	0.48	0.43	0.39	0.36	0.34
323.15 K	1	0.82	0.72	0.61	0.55	0.47	0.42	0.38	0.35	0.32

ClCCl + CCCCO
303.15 K, 101.3 kPa
Conditions	viscosity [mPa·s]
x2 = 0.036	0.4023
x2 = 0.0601	0.4082
x2 = 0.1127	0.4291
x2 = 0.1672	0.4596
x2 = 0.3142	0.5767
x2 = 0.4391	0.7209
x2 = 0.5585	0.9132
x2 = 0.6635	1.143
x2 = 0.7658	1.428
x2 = 0.8429	1.684
x2 = 0.9	1.89
x2 = 0.9566	2.105

C1CCC2=[NH+]CCCN2CC1.c1c[n-]cn1 + CS(C)=O
298.15 K, 100 kPa
Conditions	viscosity [mPa·s]
x1 = 0.0998	3.113
x1 = 0.1996	4.415
x1 = 0.2995	6.054
x1 = 0.3994	8.104
x1 = 0.4994	10.52
x1 = 0.5994	13.65
x1 = 0.6995	17.39
x1 = 0.7996	22.07
x1 = 0.8998	27.44

ClCCCl + C1COCCO1
303.15 K, 101.33 kPa
Conditions	viscosity [mPa·s]
x2 = 0.0462	0.7468
x2 = 0.1984	0.7909
x2 = 0.2786	0.8101
x2 = 0.3663	0.8307
x2 = 0.4515	0.8512
x2 = 0.567	0.8832
x2 = 0.6362	0.9068
x2 = 0.7673	0.9595
x2 = 0.8428	0.996
x2 = 0.9185	1.037

ClCCCl + CCCCCO
303.15 K, 101 kPa
Conditions	viscosity [mPa·s]
x1 = 0.1509	2.002
x1 = 0.3002	1.472
x1 = 0.4539	1.111
x1 = 0.6003	0.906
x1 = 0.7472	0.777
x1 = 0.8986	0.706

ClCCl + C1COCCO1
viscosity [mPa·s], 101 kPa
Conditions	x1 = 0.117	x1 = 0.1716	x1 = 0.2883	x1 = 0.4089	x1 = 0.4973	x1 = 0.5905	x1 = 0.7057	x1 = 0.7928	x1 = 0.902
293.15 K	1.112	1.045	0.946	0.841	0.76	0.691	0.612	0.553	0.485
298.15 K	1.027	0.97	0.882	0.786	0.713	0.654	0.579	0.525	0.46

C1CCCCCC1 + C1CCCCC1
303.15 K, 101 kPa
Conditions	viscosity [mPa·s]
x2 = 0.1425	1.16
x2 = 0.2998	1.085
x2 = 0.4978	1.003
x2 = 0.6947	0.9296
x2 = 0.8482	0.8767

CCC(=O)[O-].CC[NH+]1CCNCC1 + CCO
Conditions	viscosity [mPa·s]
298.15 K, 101 kPa, x2 = 0.3033	75.85

CCNc1ccccc1 + CCCCCCCO
viscosity [mPa·s], 101 kPa
Conditions	303.15 K	308.15 K	313.15 K
x1 = 0.0812	4.393	4.271	4.154
x1 = 0.1589	4.051	3.907	3.774
x1 = 0.2456	3.705	3.541	3.394
x1 = 0.3612	3.288	3.108	2.948
x1 = 0.4304	3.063	2.875	2.711
x1 = 0.5023	2.847	2.653	2.486
x1 = 0.5744	2.646	2.449	2.278
x1 = 0.6415	2.474	2.273	2.103
x1 = 0.7125	2.304	2.102	1.932
x1 = 0.7754	2.166	1.963	1.794
x1 = 0.8214	2.071	1.867	1.7
x1 = 0.8741	1.966	1.765	1.6
x1 = 0.9214	1.878	1.678	1.516

ClCCl + CCCCC
298.15 K, 101 kPa
Conditions	viscosity [mPa·s]
x2 = 0.05	0.403
x2 = 0.1	0.384
x2 = 0.1023	0.379
x2 = 0.15	0.366
x2 = 0.1992	0.345
x2 = 0.2	0.348
x2 = 0.25	0.332
x2 = 0.3	0.317
x2 = 0.3043	0.314
x2 = 0.35	0.303
x2 = 0.4	0.29
x2 = 0.4032	0.29
x2 = 0.45	0.28
x2 = 0.5	0.27
x2 = 0.5097	0.269
x2 = 0.55	0.262
x2 = 0.6	0.255
x2 = 0.603	0.254
x2 = 0.65	0.248
x2 = 0.6984	0.242
x2 = 0.7	0.242
x2 = 0.75	0.237
x2 = 0.7991	0.231
x2 = 0.8	0.232
x2 = 0.85	0.227
x2 = 0.8858	0.224
x2 = 0.9	0.222
x2 = 0.9189	0.221
x2 = 0.95	0.218

N=C(N)NCCC[C@H](N)C(=O)[O-].[Na+] + O
viscosity [mPa·s], 101 kPa
Conditions	x1 = 0.004484	x1 = 0.008927	x1 = 0.01333	x1 = 0.0177	x1 = 0.02202	x1 = 0.02631
293.15 K	1.199	1.453	1.745	2.107	2.501	2.956
303.15 K	0.963	1.149	1.361	1.615	1.907	2.248
313.15 K	0.78	0.925	1.087	1.278	1.493	1.744
323.15 K	0.645	0.759	0.881	1.033	1.201	1.384

ClCCCl + CCO
viscosity [mPa·s], 101 kPa
Conditions	303.15 K	313.15 K	323.15 K
x1 = 0.1495	0.842	–	–
x1 = 0.3026	0.736	–	–
x1 = 0.4507	0.681	–	–
x1 = 0.6007	0.662	–	–
x1 = 0.752	0.659	–	–
x1 = 0.8706	0.659	–	–
x2 = 0.064	0.6974	0.6126	0.5529
x2 = 0.1215	0.6779	0.5938	0.5336
x2 = 0.2295	0.6654	0.5787	0.512
x2 = 0.3279	0.6668	0.5767	0.5115
x2 = 0.3912	0.6702	0.5806	0.5107
x2 = 0.4726	0.6873	0.5896	0.5161
x2 = 0.5989	0.7253	0.6178	0.536
x2 = 0.752	0.7907	0.6671	0.5723
x2 = 0.8819	0.8746	0.7374	0.628

CCC(C)Br (stereo not drawn) + CCC(C)O
viscosity [mPa·s], 101.3 kPa
Conditions	x1 = 0.0514	x1 = 0.1041	x1 = 0.2027	x1 = 0.2985	x1 = 0.4321	x1 = 0.5027	x1 = 0.5839	x1 = 0.702	x1 = 0.8019	x1 = 0.9029
298.15 K	2.434	1.986	1.435	1.135	0.8991	0.8084	0.7285	0.6459	0.5996	0.5667
313.15 K	1.495	1.276	1.006	0.8366	0.6849	0.6292	0.5794	0.5282	0.4961	0.4774

C[Si]1(C)O[Si](C)(C)O[Si](C)(C)O[Si](C)(C)O1 + CCCCCCCCCCCCCC
viscosity [mPa·s], 103 kPa
Conditions	298.15 K	308.15 K	318.15 K
x1 = 0.05	1.944	1.605	1.347
x1 = 0.1	1.905	1.579	1.327
x1 = 0.15	1.881	1.56	1.312
x1 = 0.2	1.859	1.536	1.293
x1 = 0.25	1.853	1.523	1.282
x1 = 0.3	1.843	1.527	1.287
x1 = 0.35	1.833	1.52	1.281
x1 = 0.4	1.831	1.518	1.278
x1 = 0.45	1.82	1.509	1.274
x1 = 0.5	1.815	1.507	1.273
x1 = 0.55	1.817	1.51	1.275
x1 = 0.6	1.824	1.515	1.279
x1 = 0.65	1.831	1.522	1.285
x1 = 0.7	1.844	1.533	1.294
x1 = 0.7498	1.861	1.548	1.307
x1 = 0.8	1.887	1.571	1.324
x1 = 0.85	1.922	1.6	1.349
x1 = 0.8999	1.965	1.632	1.376
x1 = 0.95	2.014	1.672	1.406

C[C@H]1COc2c(N3CCN(C)CC3)c(F)cc3c(=O)c(C(=O)O)cn1c23 + O
viscosity [mPa·s], 100 kPa
Conditions	293.15 K	298.15 K	303.15 K	308.15 K	313.15 K
x1 = 0.00015	1.009	0.8934	0.8026	0.7256	0.6575
x1 = 0.000344	1.016	0.889	0.8085	0.7296	0.6617
x1 = 0.000425	1.019	0.9064	0.8134	0.7336	0.6673

ClCCCl + CCCCO
viscosity [mPa·s], 101 kPa
Conditions	x2 = 0.0969	x2 = 0.2052	x2 = 0.3178	x2 = 0.4683	x2 = 0.5618	x2 = 0.6768	x2 = 0.856
303.15 K	0.7121	0.7449	0.8081	0.9418	1.062	1.272	1.744
313.15 K	0.6205	0.6427	0.692	0.7892	0.8734	1.036	1.378
323.15 K	0.5584	0.571	0.6061	0.6791	0.7447	0.8711	1.123

CCNc1ccccc1 + CCCCO
303.15 K, 101 kPa
Conditions	viscosity [mPa·s]
x1 = 0.0702	2.203
x1 = 0.1296	2.187
x1 = 0.1901	2.173
x1 = 0.2568	2.154
x1 = 0.3204	2.132
x1 = 0.3725	2.114
x1 = 0.4414	2.085
x1 = 0.5136	2.047
x1 = 0.5841	2.007
x1 = 0.6525	1.97
x1 = 0.7225	1.926
x1 = 0.7954	1.873
x1 = 0.8741	1.819

ClCCCl + CCOC(C)=O
303.15 K, 101.3 kPa
Conditions	viscosity [mPa·s]
x2 = 0.099	0.679
x2 = 0.2036	0.6354
x2 = 0.3005	0.602
x2 = 0.3976	0.5686
x2 = 0.4996	0.5353
x2 = 0.6025	0.5057
x2 = 0.6983	0.4784
x2 = 0.7998	0.4505
x2 = 0.9034	0.4236

Source: the CheMixHub viscosity set
